Results taken from ChEMBL document CHEMBL5058646 (2022).

Tests used:
[1] = target: Mitogen-activated protein kinase 8 (Homo sapiens) (UniProt P45983); assay: MAPK8 SGC Tm panel (DSF); settings: Compound concentration 20.0 uM
[2] = target: Fibroblast growth factor receptor 1 (Homo sapiens) (UniProt P11362); assay: FGFR1 SGC Tm panel (DSF); settings: Compound concentration 20.0 uM
[3] = target: Peregrin (Homo sapiens) (UniProt P55201); assay: BRPF1 SGC Tm panel (DSF); settings: Compound concentration 20.0 uM
[4] = target: SRSF protein kinase 1 (Homo sapiens) (UniProt Q96SB4); assay: SRPK1 SGC Tm panel (DSF); settings: Compound concentration 20.0 uM
[5] = target: Tyrosine-protein kinase ABL1 (Homo sapiens) (UniProt P00519); assay: ABL1 SGC Tm panel (DSF); settings: Compound concentration 20.0 uM
[6] = organism: Rattus norvegicus; settings: Compound concentration 10.0 uM
[7] = target: G protein-coupled receptor kinase 5 (Homo sapiens) (UniProt P34947); assay: GPRK5 SGC Tm panel (DSF); settings: Compound concentration 20.0 uM
[8] = target: Dual specificity mitogen-activated protein kinase kinase 6 (Homo sapiens) (UniProt P52564); assay: MAP2K6 SGC Tm panel (DSF); settings: Compound concentration 20.0 uM
[9] = target: T1, Zinc finger and BTB domain-containing protein 9 (Homo sapiens) (UniProt Q96C00); settings: OCI-Ly1, Compound concentration 1.0 uM
T1 sequence (whole entry): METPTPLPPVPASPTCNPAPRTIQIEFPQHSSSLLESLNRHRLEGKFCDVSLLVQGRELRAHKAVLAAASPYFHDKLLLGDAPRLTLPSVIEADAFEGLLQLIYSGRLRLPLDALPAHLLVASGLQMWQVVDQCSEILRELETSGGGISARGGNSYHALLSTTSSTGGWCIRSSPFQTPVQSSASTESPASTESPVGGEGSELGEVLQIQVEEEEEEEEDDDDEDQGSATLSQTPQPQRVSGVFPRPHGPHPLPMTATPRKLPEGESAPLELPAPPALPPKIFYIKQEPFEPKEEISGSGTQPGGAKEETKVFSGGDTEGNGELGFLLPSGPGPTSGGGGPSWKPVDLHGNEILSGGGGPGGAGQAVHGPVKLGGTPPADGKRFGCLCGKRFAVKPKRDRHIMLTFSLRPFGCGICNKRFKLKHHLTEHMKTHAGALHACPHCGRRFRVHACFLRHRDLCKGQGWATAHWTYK

[10] = target: Serine/threonine-protein kinase 24 (Homo sapiens) (UniProt Q9Y6E0); assay: STK24 SGC Tm panel (DSF); settings: Compound concentration 20.0 uM
[11] = target: Sigma non-opioid intracellular receptor 1 (Homo sapiens) (UniProt Q99720); settings: Compound concentration 10.0 uM
Sequence of Sigma non-opioid intracellular receptor 1 (Homo sapiens) (Q99720 whole entry): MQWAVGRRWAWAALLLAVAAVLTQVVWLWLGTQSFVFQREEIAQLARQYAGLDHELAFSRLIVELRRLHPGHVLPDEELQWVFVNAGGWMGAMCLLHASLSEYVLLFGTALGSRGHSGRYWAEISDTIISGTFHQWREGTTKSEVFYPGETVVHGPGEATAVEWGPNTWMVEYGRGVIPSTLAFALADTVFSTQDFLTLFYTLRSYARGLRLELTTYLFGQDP

[12] = target: Serine/threonine-protein kinase MRCK alpha (Homo sapiens) (UniProt Q5VT25); assay: CDC42BPA SGC Tm panel (DSF); settings: Compound concentration 20.0 uM
Sequence of Serine/threonine-protein kinase MRCK alpha (Homo sapiens) (Q5VT25 whole entry, looked up, the tested form may be a part): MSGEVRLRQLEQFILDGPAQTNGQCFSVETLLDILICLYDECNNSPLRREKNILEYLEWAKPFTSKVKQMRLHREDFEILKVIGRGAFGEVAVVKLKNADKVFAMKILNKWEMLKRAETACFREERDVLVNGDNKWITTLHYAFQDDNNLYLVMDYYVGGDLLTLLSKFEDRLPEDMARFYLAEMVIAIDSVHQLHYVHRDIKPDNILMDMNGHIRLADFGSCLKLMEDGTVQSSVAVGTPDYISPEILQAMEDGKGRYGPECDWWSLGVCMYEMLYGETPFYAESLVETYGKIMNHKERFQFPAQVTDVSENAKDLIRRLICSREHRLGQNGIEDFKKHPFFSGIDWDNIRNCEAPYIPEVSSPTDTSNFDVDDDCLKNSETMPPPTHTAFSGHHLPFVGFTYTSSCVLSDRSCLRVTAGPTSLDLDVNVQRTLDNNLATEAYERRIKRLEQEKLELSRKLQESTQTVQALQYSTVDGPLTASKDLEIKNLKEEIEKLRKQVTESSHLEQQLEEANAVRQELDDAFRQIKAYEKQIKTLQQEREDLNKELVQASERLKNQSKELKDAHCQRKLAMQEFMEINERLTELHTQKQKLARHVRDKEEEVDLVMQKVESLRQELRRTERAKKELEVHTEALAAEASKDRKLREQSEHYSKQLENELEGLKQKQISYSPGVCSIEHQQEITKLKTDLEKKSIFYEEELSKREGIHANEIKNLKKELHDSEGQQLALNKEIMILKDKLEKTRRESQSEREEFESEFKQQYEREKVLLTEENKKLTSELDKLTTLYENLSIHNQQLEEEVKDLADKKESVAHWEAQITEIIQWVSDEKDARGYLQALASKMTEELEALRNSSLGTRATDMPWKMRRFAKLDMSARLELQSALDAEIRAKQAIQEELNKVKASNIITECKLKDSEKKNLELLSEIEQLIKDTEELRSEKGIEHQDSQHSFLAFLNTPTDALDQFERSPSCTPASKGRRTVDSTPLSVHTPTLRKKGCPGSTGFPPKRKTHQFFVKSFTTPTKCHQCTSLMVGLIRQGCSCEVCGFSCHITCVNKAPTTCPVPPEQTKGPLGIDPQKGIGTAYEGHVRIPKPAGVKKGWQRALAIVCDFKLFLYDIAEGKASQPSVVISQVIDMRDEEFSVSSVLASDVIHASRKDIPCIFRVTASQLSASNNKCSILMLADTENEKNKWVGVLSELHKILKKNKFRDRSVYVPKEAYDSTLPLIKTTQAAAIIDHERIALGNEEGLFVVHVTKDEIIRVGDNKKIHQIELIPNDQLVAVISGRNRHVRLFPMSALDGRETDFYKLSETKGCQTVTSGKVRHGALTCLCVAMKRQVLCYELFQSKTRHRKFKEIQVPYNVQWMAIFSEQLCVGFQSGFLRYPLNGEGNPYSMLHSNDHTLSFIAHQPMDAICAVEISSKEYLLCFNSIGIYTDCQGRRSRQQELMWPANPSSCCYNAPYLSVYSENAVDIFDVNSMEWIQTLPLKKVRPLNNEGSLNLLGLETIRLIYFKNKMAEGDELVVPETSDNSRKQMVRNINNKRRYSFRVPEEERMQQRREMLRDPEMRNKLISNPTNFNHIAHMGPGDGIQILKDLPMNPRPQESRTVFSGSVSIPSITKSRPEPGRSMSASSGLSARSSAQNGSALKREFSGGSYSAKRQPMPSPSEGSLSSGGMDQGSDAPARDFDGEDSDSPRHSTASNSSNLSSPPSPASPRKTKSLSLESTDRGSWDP

[13] = target: Zinc finger and BTB domain-containing protein 21 (Homo sapiens) (UniProt Q9ULJ3); settings: SUD4, Compound concentration 1.0 uM
[14] = target: T2, Zinc finger protein 131 (Homo sapiens) (UniProt P52739); settings: SUD4, Compound concentration 1.0 uM
T2 sequence (whole entry): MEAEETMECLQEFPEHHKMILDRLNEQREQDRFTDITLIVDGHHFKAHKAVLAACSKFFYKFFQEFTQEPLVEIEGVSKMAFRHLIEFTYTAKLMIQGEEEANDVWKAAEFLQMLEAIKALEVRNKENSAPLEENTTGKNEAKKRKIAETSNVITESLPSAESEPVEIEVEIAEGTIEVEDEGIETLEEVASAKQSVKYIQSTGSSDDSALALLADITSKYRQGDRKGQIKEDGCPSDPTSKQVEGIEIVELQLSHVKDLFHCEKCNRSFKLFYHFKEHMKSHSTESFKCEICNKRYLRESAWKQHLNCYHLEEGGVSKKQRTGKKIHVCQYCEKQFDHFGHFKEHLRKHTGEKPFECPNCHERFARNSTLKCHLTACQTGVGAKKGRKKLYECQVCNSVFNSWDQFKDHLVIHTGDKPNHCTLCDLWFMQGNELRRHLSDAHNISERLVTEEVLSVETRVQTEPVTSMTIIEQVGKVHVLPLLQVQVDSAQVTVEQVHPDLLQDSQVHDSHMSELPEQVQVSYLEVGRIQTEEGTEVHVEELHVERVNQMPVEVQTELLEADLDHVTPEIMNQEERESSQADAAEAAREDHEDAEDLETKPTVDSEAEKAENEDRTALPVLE

[15] = target: Serine/threonine-protein kinase haspin (Homo sapiens) (UniProt Q8TF76); assay: GSG2 SGC Tm panel (DSF); settings: Compound concentration 20.0 uM
Sequence of Serine/threonine-protein kinase haspin (Homo sapiens) (Q8TF76 whole entry): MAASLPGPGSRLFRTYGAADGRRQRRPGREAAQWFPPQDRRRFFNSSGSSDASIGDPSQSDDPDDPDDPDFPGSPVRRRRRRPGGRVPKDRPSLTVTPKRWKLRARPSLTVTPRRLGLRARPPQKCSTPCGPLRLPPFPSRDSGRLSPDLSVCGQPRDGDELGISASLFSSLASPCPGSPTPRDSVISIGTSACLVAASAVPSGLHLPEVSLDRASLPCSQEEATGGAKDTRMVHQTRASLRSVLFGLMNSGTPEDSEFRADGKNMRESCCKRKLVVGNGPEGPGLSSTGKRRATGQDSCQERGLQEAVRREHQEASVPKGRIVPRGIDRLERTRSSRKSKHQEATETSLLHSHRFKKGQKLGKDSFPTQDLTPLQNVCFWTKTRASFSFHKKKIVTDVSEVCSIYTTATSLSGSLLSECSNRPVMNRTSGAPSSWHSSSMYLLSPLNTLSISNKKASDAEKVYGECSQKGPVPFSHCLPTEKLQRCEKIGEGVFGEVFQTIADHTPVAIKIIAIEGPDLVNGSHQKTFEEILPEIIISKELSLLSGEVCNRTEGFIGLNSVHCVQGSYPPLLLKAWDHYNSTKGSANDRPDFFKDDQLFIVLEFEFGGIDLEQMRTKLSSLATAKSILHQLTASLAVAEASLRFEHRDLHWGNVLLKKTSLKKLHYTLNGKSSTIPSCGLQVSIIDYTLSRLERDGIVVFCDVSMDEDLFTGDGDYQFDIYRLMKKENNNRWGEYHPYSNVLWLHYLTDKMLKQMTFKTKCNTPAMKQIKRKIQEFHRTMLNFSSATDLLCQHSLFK

[16] = target: Transcription regulator protein BACH2 (Homo sapiens) (UniProt Q9BYV9); settings: OCI-Ly1, Compound concentration 1.0 uM
[17] = target: Adenosine receptor A2a (Homo sapiens) (UniProt P29274); assay: GPCRScan assay: inhibition of A2A; settings: Compound concentration 10.0 uM
[18] = target: Serine/threonine-protein kinase PAK 1 (Homo sapiens) (UniProt Q13153); assay: PAK1 SGC Tm panel (DSF); settings: Compound concentration 20.0 uM
[19] = target: D(4) dopamine receptor (Homo sapiens) (UniProt P21917); settings: Compound concentration 10.0 uM
[20] = target: Serine/threonine-protein kinase ULK1 (Homo sapiens) (UniProt O75385); assay: ULK1 SGC Tm panel (DSF); settings: Compound concentration 20.0 uM
Sequence of Serine/threonine-protein kinase ULK1 (Homo sapiens) (O75385 whole entry): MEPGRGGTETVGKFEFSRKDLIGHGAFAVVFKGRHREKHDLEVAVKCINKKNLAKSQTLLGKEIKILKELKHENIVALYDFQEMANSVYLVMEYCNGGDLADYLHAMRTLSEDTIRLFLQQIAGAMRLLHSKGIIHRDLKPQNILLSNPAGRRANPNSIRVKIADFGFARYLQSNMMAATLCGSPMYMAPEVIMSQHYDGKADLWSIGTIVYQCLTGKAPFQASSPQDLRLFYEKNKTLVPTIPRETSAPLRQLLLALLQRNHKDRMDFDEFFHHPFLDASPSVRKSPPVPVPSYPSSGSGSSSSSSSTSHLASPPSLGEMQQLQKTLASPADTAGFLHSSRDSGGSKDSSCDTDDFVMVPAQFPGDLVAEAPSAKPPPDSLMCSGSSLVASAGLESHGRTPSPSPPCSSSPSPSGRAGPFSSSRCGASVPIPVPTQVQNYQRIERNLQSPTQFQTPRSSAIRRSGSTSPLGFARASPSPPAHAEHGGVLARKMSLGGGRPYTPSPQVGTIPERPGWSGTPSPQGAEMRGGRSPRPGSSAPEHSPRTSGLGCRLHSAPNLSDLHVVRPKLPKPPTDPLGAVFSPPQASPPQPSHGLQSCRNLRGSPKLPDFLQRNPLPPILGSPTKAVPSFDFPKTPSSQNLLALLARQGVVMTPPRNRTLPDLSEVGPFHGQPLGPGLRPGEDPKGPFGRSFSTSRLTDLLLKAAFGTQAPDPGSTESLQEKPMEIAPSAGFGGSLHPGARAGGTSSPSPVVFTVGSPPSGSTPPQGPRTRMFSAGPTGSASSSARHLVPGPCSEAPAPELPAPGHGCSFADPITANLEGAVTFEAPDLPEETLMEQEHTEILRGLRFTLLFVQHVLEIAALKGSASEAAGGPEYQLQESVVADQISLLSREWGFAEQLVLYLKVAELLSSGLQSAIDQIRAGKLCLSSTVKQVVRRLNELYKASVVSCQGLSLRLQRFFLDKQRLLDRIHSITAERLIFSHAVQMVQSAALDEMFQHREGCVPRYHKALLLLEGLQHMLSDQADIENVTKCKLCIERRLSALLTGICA

[21] = target: Fibroblast growth factor receptor 3 (Homo sapiens) (UniProt P22607); assay: FGFR3 SGC Tm panel (DSF); settings: Compound concentration 20.0 uM
[22] = GPCRScan assay: inhibition of GABA/PBR; design: species or system Rattus norvegicus; radioligand conc. used [nm] 0.3 – 2.0, parental cells brain tissue
[23] = target: Zinc finger and BTB domain-containing protein 14 (Homo sapiens) (UniProt O43829); settings: SUD4, Compound concentration 1.0 uM
[24] = target: Serine/threonine-protein kinase 4 (Homo sapiens) (UniProt Q13043); assay: STK4 SGC Tm panel (DSF); settings: Compound concentration 20.0 uM
[25] = target: Serine/threonine-protein kinase OSR1 (Homo sapiens) (UniProt O95747); assay: OSR1 SGC Tm panel (DSF); settings: Compound concentration 20.0 uM

Sequence of Mitogen-activated protein kinase 8 (Homo sapiens) (P45983 whole entry): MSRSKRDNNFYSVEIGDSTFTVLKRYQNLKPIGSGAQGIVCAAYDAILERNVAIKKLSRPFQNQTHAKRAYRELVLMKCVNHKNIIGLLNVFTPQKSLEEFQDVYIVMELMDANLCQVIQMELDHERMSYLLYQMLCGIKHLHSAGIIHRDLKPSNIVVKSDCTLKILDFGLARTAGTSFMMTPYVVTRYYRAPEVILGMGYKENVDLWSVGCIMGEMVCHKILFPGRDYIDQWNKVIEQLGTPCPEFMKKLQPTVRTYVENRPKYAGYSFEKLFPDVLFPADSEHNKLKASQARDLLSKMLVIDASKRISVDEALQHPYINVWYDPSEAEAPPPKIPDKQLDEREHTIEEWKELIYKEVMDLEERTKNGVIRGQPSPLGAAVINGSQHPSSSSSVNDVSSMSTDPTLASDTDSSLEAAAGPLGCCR
Sequence of Fibroblast growth factor receptor 1 (Homo sapiens) (P11362 22-822 limits assumed): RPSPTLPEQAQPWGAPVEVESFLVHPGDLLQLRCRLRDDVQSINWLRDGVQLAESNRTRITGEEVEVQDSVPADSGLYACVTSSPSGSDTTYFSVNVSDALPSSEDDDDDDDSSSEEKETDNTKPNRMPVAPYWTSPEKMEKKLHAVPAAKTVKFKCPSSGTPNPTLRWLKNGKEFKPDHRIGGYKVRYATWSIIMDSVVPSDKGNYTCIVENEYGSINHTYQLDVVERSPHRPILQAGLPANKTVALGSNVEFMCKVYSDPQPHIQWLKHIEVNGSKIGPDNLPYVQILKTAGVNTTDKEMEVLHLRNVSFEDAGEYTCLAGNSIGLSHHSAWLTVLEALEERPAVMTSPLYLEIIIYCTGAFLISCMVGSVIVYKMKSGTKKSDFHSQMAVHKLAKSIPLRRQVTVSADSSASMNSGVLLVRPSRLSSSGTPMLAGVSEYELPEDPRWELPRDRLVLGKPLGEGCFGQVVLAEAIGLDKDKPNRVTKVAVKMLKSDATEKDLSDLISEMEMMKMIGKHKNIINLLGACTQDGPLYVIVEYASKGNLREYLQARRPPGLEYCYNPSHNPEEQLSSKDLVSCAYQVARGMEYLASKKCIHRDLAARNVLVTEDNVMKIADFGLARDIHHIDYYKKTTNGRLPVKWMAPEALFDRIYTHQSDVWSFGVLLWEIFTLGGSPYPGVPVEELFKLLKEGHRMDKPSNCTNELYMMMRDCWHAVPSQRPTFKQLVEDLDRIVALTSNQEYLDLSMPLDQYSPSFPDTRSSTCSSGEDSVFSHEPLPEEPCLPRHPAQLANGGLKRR

C[C@@H]1CN(c2ncc(Cl)c(Nc3ccc4c(c3)n(CCC(C)(C)O)c(=O)n4C)n2)C[C@H](C)C1(F)F
active: inhibition [6] 59.6%
1.11 µM: Ki [22]
inactive: Tm [1] 43 °C | Tm [2] 50 °C | Tm [3] 44 °C | Tm [4] 45 °C | Tm [5] 46 °C | Tm [7] 40 °C | Tm [8] 45 °C | LogFC [9] -0.0251 | Tm [10] 36 °C | inhibition [11] 47.4% | Tm [12] 43 °C | LogFC [13] 0.0103 | LogFC [14] -0.044 | Tm [15] 45 °C | LogFC [16] -0.00139 | inhibition [17] -3.49% | Tm [18] 46 °C | inhibition [19] 15.2% | Tm [20] 41 °C | Tm [21] 42 °C | LogFC [23] 0.0827 | Tm [24] 46 °C | Tm [25] 39 °C
6.01: pKi [22]
